Assays:
Phakospora pachyrhizi = assay: in vivo preventive test on Phakospora pachyrhizi (soybean rust); conditions: for pest or weed control at 500 ppm: Glycine max, 264 h, 500 ppm of active ingredient, preventive spray on young soybean plants, inoculation after 24 hours, evaluated 11 days after inoculation, 0% = control plants, 100% = no disease, read-out: efficacy; for efficacy: 500 ppm
Procedure: Example A: in vivo preventive test on Phakospora pachyrhizi (soybean rust) [table] The active ingredients were made soluble and homogenized in a mixture of Dimethyl sulfoxide/Acetone/ /Tween® 80 and then diluted in water to the desired concentration. The young plants of soybean were treated by spraying the active ingredient prepared as described above. Control plants were treated only with an aqueous solution of Acetone/Dimethyl sulfoxide/ Tween® 80. After 24 hours, the plants were contaminated by spraying the leaves with an aqueous suspension of Phakospora pachyrhizi spores. The contaminated soybean plants were incubated for 24 hours at 24°C and at 100% relative humidity and then for 10 days at 24°C and at 70-80% relative humidity. The test was evaluated 11 days after the inoculation. 0% means an efficacy which corresponds to that of the control plants while an efficacy of 100% means that no disease was observed.

[1] = LogP measurement by HPLC on reversed phase columns (EEC directive 79/831 Annex V.A8); assay type: physicochemical
Procedure: Measurement of LogP values was performed according to EEC directive 79/831 Annex V.A8 by HPLC (High Performance Liquid Chromatography) on reversed phase columns with the following methods: • ^[a] LogP value is determined by measurement of LC-UV, in an acidic range, with 0.1% formic acid in water and acetonitrile as eluent (linear gradient from 10% acetonitrile to 95% acetonitrile). • ^[b] LogP value is determined by measurement of LC-UV, in a neutral range, with 0.001 molar ammonium acetate solution in water and acetonitrile as eluent (linear gradient from 10% acetonitrile to 95% acetonitrile). • ^[c] LogP value is determined by measurement of LC-UV, in an acidic range, with 0.1% phosphoric acid and acetonitrile as eluent (linear gradient from 10% acetonitrile to 95% acetonitrile).
If more than one LogP value is available within the same method, all the values are given and separated by "+". […]

[2] = reversed phase HPLC columns, method [a]: LC-UV, acidic range, 0.1% formic acid in water and acetonitrile as eluent (linear gradient 10% to 95% acetonitrile)
[3] = method [a]: LC-UV, acidic range, 0.1% formic acid in water and acetonitrile as eluent (linear gradient 10% to 95% acetonitrile)
[4] = reversed phase HPLC columns, method [b]: LC-UV, neutral range, 0.001 molar ammonium acetate solution in water and acetonitrile as eluent (linear gradient 10% to 95% acetonitrile)

| Compound | chromatographic logP [1, 2] | chromatographic logP [1, 3] | chromatographic logP [1, 4] | pest or weed control at 500 ppm (Phakospora pachyrhizi) [%] | efficacy (Phakospora pachyrhizi) |
| --- | --- | --- | --- | --- | --- |
| CCN(C)C=Nc1cc(F)c(Sc2ccccc2C)cc1C [Example I-022, N-ethyl-N'-[5-fluoro-2-methyl-4-[(2-methylphenyl)thio]phenyl]-N-methylmethanimidamide] | 1.66 | – | – | ≥ 70 | – |
| CCN(C)C=Nc1cc(C)c([S+]([O-])c2ccccc2C#N)cc1C (stereo not drawn) [Example I-052, N'-[4-(2-cyanophcnyl)sulfinyl-2,5-dimethylphenyl]-N-ethyl-N-methylmethanimidamide] | – | 0.73 | – | – | at least 70% |
| CCN(C)C=Nc1cc(C)c(Sc2ccccc2Cl)cc1Cl [Example I-007, N'-[2-chloro-4-[(2-chlorophenyl)thio]-5-methylphenyl]-N-ethyl-N-methylmethanimidamide] | 1.83 | – | – | ≥ 70 | – |
| CCN(C)C=Nc1cc(C)c(Sc2ccccc2C)cc1Cl [Example I-006, N'-[2-chloro-5-methyl-4-[(2-methylphenyl)thio]phenyl]-N-ethyl-N-methylmethanimidamide] | 1.77 | – | – | ≥ 70 | – |
| CCN(C)C=Nc1cc(Cl)c(Sc2ccccc2F)cc1C [Example I-024, N'-[5-chloro-4-[(2-fluorophenyl)thio]-2-methylphenyl]-N-ethyl-N-methylmethanimidamide] | 1.61 | – | – | ≥ 70 | – |
| CCN(C)C=Nc1cc(Br)c(S(=O)(=O)c2ccccc2C)cc1C [Example I-045, N'-[5-bromo-2-methyl-4-(2-methylphenyl)sulfonylphenyl]-N-ethyl-N-methylmethanimidamide] | 1.53 | – | – | ≥ 70 | – |
| CCN(C)C=Nc1cc(F)c(Sc2ccccc2Cl)cc1C [Example I-023, N'-[4-[(2-chlorophenyl)thio]-5-fluoro-2-methylphenyl]-N-ethyl-N-methylmethanimidamide] | 1.69 | – | – | ≥ 70 | – |
| CCN(C)C=Nc1cc(Br)c(Sc2ccccc2)cc1C [Example I-039, N'-(5-bromo-2-methyl-4-phenylsulfanylphenyl)-N-ethyl-N-methylmethanimidamide] | 1.66 | – | – | ≥ 70 | – |
| CCN(C)C=Nc1cc(C#N)c(Sc2ccccc2C)cc1C [Example I-058, N'-[5-cyano-2-methyl-4-[(2-methylphenyl)thio]phenyl]-N-ethyl-N-methylmethanimidamide] | 1.61 | – | – | ≥ 70 | – |
| CCN(C)C=Nc1cc(Cl)c(Sc2ccccc2)cc1C [Example I-041, N'-(5-chloro-2-methyl-4-phenylsulfanylphenyl)-N-ethyl-N-methylmethanimidamide] | 1.63 | – | – | ≥ 70 | – |
| CCN(C)C=Nc1cc(C)c(Sc2ccccc2C#N)cc1C [Example I-069, N'-[4-[(2-cyanophenyl)thio]-2,5-dimethylphenyl]-N-ethyl-N-methylmethanimidamide] | 1.42 | – | – | ≥ 70 | – |
| CCN(C)C=Nc1cc(C)c(Sc2ccccc2F)cc1Br [Example I-077, N'-[2-bromo-4-[(2-fluorophenyl)thio]-5-methylphenyl]-N-ethyl-N-methylmethanimidamide] | 1.75 | – | – | ≥ 70 | – |
| CCN(C)C=Nc1cc(Br)c(Sc2ccccc2Cl)cc1C [Example I-047, N'-[5-bromo-4-[(2-chlorophenyl)thio]-2-methylphenyl]-N-ethyl-N-methylmethanimidamide] | 1.84 | – | – | ≥ 70 | – |
| CCN(C)C=Nc1cc(Br)c(Sc2ccccc2F)cc1C [Example I-046, N'-[5-bromo-4-[(2-fluorophenyl)thio]-2-methylphenyl]-N-ethyl-N-methylmethanimidamide] | 1.66 | – | – | ≥ 70 | – |
| CCN(C)C=Nc1cc(Cl)c(Sc2ccccc2Cl)cc1C [Example I-066, N'-[5-chloro-4-[(2-chlorophenyl)thio]-2-methylphenyl]-N-ethyl-N-methylmethanimidamide] | 1.84 | – | – | ≥ 70 | – |
| CCN(C)C=Nc1cc(C)c(Sc2ccccc2C)cc1Br [Example I-078, N'-[2-bromo-5-methyl-4-[(2-methylphenyl)thio]phenyl]-N-ethyl-N-methylmethanimidamide] | 1.92 | – | – | ≥ 70 | – |
| CCN(C)C=Nc1cc(C)c(S(=O)(=O)c2ccccc2Cl)cc1C [Example I-020, N'-[4-(2-chlorophenyl)sulfonyl-2,5-dimethylphenyl]-N-ethyl-N-methylmethanimidamide] | 1.18 | – | – | ≥ 70 | – |
| CCN(C)C=Nc1cc(C)c(Sc2ccccc2F)cc1Cl [Example I-008, N'-[2-chloro-4-[(2-fluorophenyl)thio]-5-methylphenyl]-N-ethyl-N-methylmethanimidamide] | 1.6 | – | – | ≥ 70 | – |
| CCN(C)C=Nc1cc(Cl)c(Sc2ccccc2C#N)cc1C [Example I-067, N'-[5-chloro-4-[(2-cyanophenyl)thio]-2-methylphenyl]-N-ethyl-N-methylmethanimidamide] | 1.53 | – | – | ≥ 70 | – |
| CCN(C)C=Nc1cc(Cl)c(S(=O)(=O)c2ccccc2F)cc1C [Example I-026, N'-[5-chloro-4-(2-fluorophenyl)sulfonyl-2-methylphenyl]-N-ethyl-N-methylmethanimidamide] | 1.42 | – | – | ≥ 70 | – |

The next lines start with results.

| chromatographic logP [1, 2] | chromatographic logP [1, 3] | chromatographic logP [1, 4] | Compound | pest or weed control at 500 ppm (Phakospora pachyrhizi) [%] | efficacy (Phakospora pachyrhizi) |
| --- | --- | --- | --- | --- | --- |
| 1.99 | – | – | CCN(C)C=Nc1cc(C)c(Sc2ccccc2Cl)cc1C1CC1 [Example I-099, N'-[4-[(2-chlorophenyl)thio]-2-cyclopropyl-5-methylphenyl]-N-ethyl-N-methylmethanimidamide] | ≥ 70 | – |
| 1.58 | – | 4.95 | CCc1cc(Sc2ccccc2C#N)c(C)cc1N=CN(C)CC [Example I-102, N'-[4-[(2-cyanophenyl)thio]-2-ethyl-5-methylphenyl]-N-ethyl-N-methylmethanimidamide] | ≥ 70 | – |
| 1.8 | – | – | CCN(C)C=Nc1cc(C)c(Sc2ccccc2F)cc1C1CC1 [Example I-097, N'-[2-cyclopropyl-4-[(2-fluorophenyl)thio]-5-methylphenyl]-N-ethyl-N-methylmethanimidamide] | ≥ 70 | – |
| 1.72 | – | 5.3 | CCN(C)C=Nc1cc(C)c(Sc2ccccc2C#N)cc1C(C)C [Example I-101, N'-[4-[(2-cyanophenyl)thio]-2-isopropyl-5-methylphenyl]-N-ethyl-N-methylmethanimidamide] | ≥ 70 | – |
| 1.77 | – | – | CCN(C)C=Nc1cc(C)c(Sc2ccccc2)cc1C1CC1 [Example I-090, N'-(2-cyclopropyl-5-methyl-4-phenylsulfanylphenyl)-N-ethyl-N-methylmethanimidamide] | ≥ 70 | – |
| – | 1.77 | – | CCc1cc(Sc2ccccc2F)c(C)cc1N=CN(C)CC [Example I-087] | – | at least 70% |
| 1.9 | – | – | CCN(C)C=Nc1cc(C)c(Sc2ccccc2F)cc1C(C)C [Example I-082, N-ethyl-N'-[4-[(2-fluorophenyl)thio]-2-isopropyl-5-methylphenyl]-N-methylmethanimidamide] | ≥ 70 | – |
| 1.99 | – | 6.2 | CCc1cc(Sc2ccccc2Cl)c(C)cc1N=CN(C)CC [Example I-103, N'-[4-[(2-chlorophenyl)thio]-2-ethyl-5-methylphenyl]-N-ethyl-N-methylmethanimidamide] | ≥ 70 | – |
| 2.05 | – | – | CCN(C)C=Nc1cc(C)c(Sc2ccccc2Cl)cc1Br [Example I-098, N'-[2-bromo-4-[(2-chlorophenyl)thio]-5-methylphenyl]-N-ethyl-N-methylmethanimidamide] | ≥ 70 | – |
| 1.37 | – | – | CCc1cc(S(=O)(=O)c2ccccc2C)c(C)cc1N=CN(C)CC [Example I-091, N-ethyl-N'-[2-ethyl-5-methyl-4-(2-methylphenyl)sulfonylphenyl]-N-methylmethanimidamide] | ≥ 70 | – |

— patent EP3915971A1, “PHENYL-S(O)N-PHENYLAMIDINES AND THE USE THEREOF AS FUNGICIDES” (Bayer Aktiengesellschaft, priority 2020, dated 2021)
